How the values were obtained:
[1] = target: GDP-bound KRAS wild-type protein (Homo sapiens, UniProt P01116); assay: Binding to KRAS by surface plasmon resonance (SPR), Single Cycle Kinetics; settings: SPR, Single Cycle Kinetics, GDP-bound KRAS wild-type protein; read-out: KRAS KD
[2] = target: GDP-bound NRAS wild-type protein (Homo sapiens, UniProt P01111); assay: Binding to NRAS by surface plasmon resonance (SPR), Single Cycle Kinetics; settings: ratio of KD for GDP-bound NRAS wild-type protein to KD for KRAS, SPR
GDP-bound NRAS wild-type protein, sequence (P01111 whole entry): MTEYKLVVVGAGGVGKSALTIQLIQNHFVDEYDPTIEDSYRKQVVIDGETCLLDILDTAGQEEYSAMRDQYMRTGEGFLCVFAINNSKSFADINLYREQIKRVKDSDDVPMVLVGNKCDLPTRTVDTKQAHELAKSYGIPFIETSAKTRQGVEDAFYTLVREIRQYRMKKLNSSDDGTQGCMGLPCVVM

[3] = target: GDP-bound HRAS wild-type protein (Homo sapiens, UniProt P01112); assay: Binding to HRAS by surface plasmon resonance (SPR), Single Cycle Kinetics; settings: ratio of KD for GDP-bound HRAS wild-type protein to KD for KRAS, SPR
GDP-bound HRAS wild-type protein, sequence (P01112 whole entry): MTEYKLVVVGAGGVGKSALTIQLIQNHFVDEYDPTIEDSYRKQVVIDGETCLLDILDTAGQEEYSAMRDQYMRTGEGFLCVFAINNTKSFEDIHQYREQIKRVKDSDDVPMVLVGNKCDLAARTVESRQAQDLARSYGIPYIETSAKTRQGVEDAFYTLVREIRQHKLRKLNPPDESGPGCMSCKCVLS

[4] = test system: human lung cancer strain NCI-H441; assay: cells; settings: NCI-H441, 96 h, read-out: NCI-H441 IC50 (nM), NCI-H441 cell proliferation, 4 days, CellTiter-Glo;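 also: cell proliferation inhibition after four days measured by CellTiter-Glo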

GDP-bound KRAS wild-type protein, sequence (P01116 whole entry): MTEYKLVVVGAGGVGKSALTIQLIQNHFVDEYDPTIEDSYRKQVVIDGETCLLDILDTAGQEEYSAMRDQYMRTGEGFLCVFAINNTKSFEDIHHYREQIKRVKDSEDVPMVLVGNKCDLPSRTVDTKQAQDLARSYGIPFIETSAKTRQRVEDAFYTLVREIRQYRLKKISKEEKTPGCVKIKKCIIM

Structure (SMILES) | Kd [1] [nM] | IC50 [4] [nM] | NRAS/KRAS (KD ratio) [2] | HRAS/KRAS (KD ratio) [3]
CCCOC[C@H]1C(=O)N[C@@H]([C@@H](C)CC)C(=O)N(C)CC(=O)N(C)[C@H]2C/C=C\CCN(C2=O)[C@@H](Cc2ccc(C(F)(F)F)cc2)C(=O)N(C)CC(=O)N[C@@H](CCc2ccc(C(F)(F)F)c(OC)c2)C(=O)N2C[C@H](OCC)C[C@H]2C(=O)NC2(CC(C)(C)C2)C(=O)N(C)[C@@H](C2CCCC2)C(=O)N(C)[C@H](C(=O)N(C)C)CC(=O)N1C [PP1657] | 0.06 | 2 | A (a compound having 10 or more and less than 20 is denoted as A) | B (a compound having 3 or more and less than 10 is denoted as B)
CC[C@H](C)[C@@H]1NC(=O)[C@H](CC2CC2)N(C)C(=O)C[C@@H](C(=O)N(C)C)N(C)C(=O)[C@H](C2CCCC2)N(C)C(=O)C2(CC(C)(C)C2)NC(=O)[C@@H]2C[C@H](C)CN2C(=O)[C@H](CCc2cc(F)c(C(F)(F)F)c(F)c2)NC(=O)CN(C)C(=O)[C@H](Cc2ccc(C(F)(F)F)cc2)N2CC/C=C\C[C@@H](C2=O)N(C)C(=O)CN(C)C1=O [PP1660] | 0.11 | 4.3 | A (a compound having 10 or more and less than 20 is denoted as A) | A (a compound having 10 or more and less than 20 is denoted as A)
CC[C@H](C)[C@@H]1NC(=O)[C@H](CC(C)C)N(C)C(=O)C[C@@H](C(=O)N(C)C)N(C)C(=O)[C@H](C2CCCC2)N(C)C(=O)C2(CC(C)(C)C2)NC(=O)[C@@H]2C[C@H](C)CN2C(=O)[C@H](CCc2cc(F)c(C(F)(F)F)c(F)c2)NC(=O)CN(C)C(=O)[C@H](Cc2ccc(C(F)(F)F)cc2)N2CC/C=C\C[C@@H](C2=O)N(C)C(=O)CN(C)C1=O [PP1662] | 0.14 | 6.4 | A (a compound having 10 or more and less than 20 is denoted as A) | B (a compound having 3 or more and less than 10 is denoted as B)
CCCN(C)C(=O)[C@@H]1CC(=O)N(C)[C@@H](CC2CC2)C(=O)N[C@@H]([C@@H](C)CC)C(=O)N(C)CC(=O)N(C)[C@H]2C/C=C\CCN(C2=O)[C@@H](Cc2ccc(C(F)(F)F)cc2)C(=O)N(C)CC(=O)N[C@@H](CCc2cc(F)c(C(F)(F)F)c(F)c2)C(=O)N2C[C@H](F)C[C@H]2C(=O)NC2(CC(C)(C)C2)C(=O)N(C)[C@@H](C2CCCC2)C(=O)N1C [PP1665] | 0.066 | 3.1 | AA (a compound having 20 or more is denoted as AA) | A (a compound having 10 or more and less than 20 is denoted as A)
CCCN(C)C(=O)[C@@H]1CC(=O)N(C)[C@@H](CC)C(=O)N[C@@H]([C@@H](C)CC)C(=O)N(C)CC(=O)N(C)[C@H]2C/C=C\CCN(C2=O)[C@@H](Cc2ccc(C(F)(F)F)cc2)C(=O)N(C)CC(=O)N[C@@H](CCc2cc(F)c(C(F)(F)F)c(F)c2)C(=O)N2C[C@H](OCC)C[C@H]2C(=O)NC2(CC(C)(C)C2)C(=O)N(C)[C@@H](C2CCCC2)C(=O)N1C [PP1670] | 0.1 | 6.7 | A (a compound having 10 or more and less than 20 is denoted as A) | A (a compound having 10 or more and less than 20 is denoted as A)
CCO[C@@H]1C[C@H]2C(=O)NC3(CC(C)(C)C3)C(=O)N(C)[C@@H](C3CCCC3)C(=O)N(C)[C@H](C(=O)N(C)CC)CC(=O)N(C)[C@@H](COC)C(=O)N[C@@H]([C@@H](C)CC)C(=O)N(C)CC(=O)N(C)[C@H]3C/C=C\CCN(C3=O)[C@@H](Cc3ccc(C(F)(F)F)cc3)C(=O)N(C)CC(=O)N[C@@H](CCc3cc(F)c(C(F)(F)F)c(F)c3)C(=O)N2C1 [PP1671] | 0.077 | 3 | A (a compound having 10 or more and less than 20 is denoted as A) | A (a compound having 10 or more and less than 20 is denoted as A)

Continued, in another order:

Kd [1] [nM] | IC50 [4] [nM] | Structure (SMILES) | NRAS/KRAS (KD ratio) [2] | HRAS/KRAS (KD ratio) [3]
0.065 | 1.5 | CCCN(C)C(=O)[C@@H]1CC(=O)N(C)[C@@H](COC)C(=O)N[C@@H]([C@@H](C)CC)C(=O)N(C)CC(=O)N(C)[C@H]2C/C=C\CCN(C2=O)[C@@H](Cc2ccc(C(F)(F)F)cc2)C(=O)N(C)CC(=O)N[C@@H](CCc2ccc(C(F)(F)F)c(OC)c2)C(=O)N2C[C@H](OCC)C[C@H]2C(=O)NC2(CC(C)(C)C2)C(=O)N(C)[C@@H](C2CCCC2)C(=O)N1C [PP1656] | AA (a compound having 20 or more is denoted as AA) | A (a compound having 10 or more and less than 20 is denoted as A)
0.12 | 3.8 | CC[C@H](C)[C@@H]1NC(=O)[C@H](CC(F)F)N(C)C(=O)C[C@@H](C(=O)N(C)C)N(C)C(=O)[C@H](C2CCCC2)N(C)C(=O)C2(CC(C)(C)C2)NC(=O)[C@@H]2C[C@H](C)CN2C(=O)[C@H](CCc2cc(F)c(C(F)(F)F)c(F)c2)NC(=O)CN(C)C(=O)[C@H](Cc2ccc(C(F)(F)F)cc2)N2CC/C=C\C[C@@H](C2=O)N(C)C(=O)CN(C)C1=O [PP1658] | A (a compound having 10 or more and less than 20 is denoted as A) | A (a compound having 10 or more and less than 20 is denoted as A)
0.19 | 5.7 | CCCC[C@H]1C(=O)N[C@@H]([C@@H](C)CC)C(=O)N(C)CC(=O)N(C)[C@H]2C/C=C\CCN(C2=O)[C@@H](Cc2ccc(C(F)(F)F)cc2)C(=O)N(C)CC(=O)N[C@@H](CCc2cc(F)c(C(F)(F)F)c(F)c2)C(=O)N2C[C@@H](C)C[C@H]2C(=O)NC2(CC(C)(C)C2)C(=O)N(C)[C@@H](C2CCCC2)C(=O)N(C)[C@H](C(=O)N(C)C)CC(=O)N1C [PP1661] | A (a compound having 10 or more and less than 20 is denoted as A) | A (a compound having 10 or more and less than 20 is denoted as A)
0.038 | 3.6 | CCCN(C)C(=O)[C@@H]1CC(=O)N(C)[C@@H](C)C(=O)N[C@@H]([C@@H](C)CC)C(=O)N(C)CC(=O)N(C)[C@H]2C/C=C\CCN(C2=O)[C@@H](Cc2ccc(C(F)(F)F)cc2)C(=O)N(C)CC(=O)N[C@@H](CCc2cc(F)c(C(F)(F)F)c(F)c2)C(=O)N2C[C@H](F)C[C@H]2C(=O)NC2(CC(C)(C)C2)C(=O)N(C)[C@@H](C2CCCC2)C(=O)N1C [PP1663] | AA (a compound having 20 or more is denoted as AA) | A (a compound having 10 or more and less than 20 is denoted as A)
0.076 | 8.1 | CCCN(C)C(=O)[C@@H]1CC(=O)N(C)[C@@H](C)C(=O)N[C@@H]([C@@H](C)CC)C(=O)N(C)CC(=O)N(C)[C@H]2C/C=C\CCN(C2=O)[C@@H](Cc2ccc(C(F)(F)F)cc2)C(=O)N(C)CC(=O)N[C@@H](CCc2cc(F)c(C(F)(F)F)c(F)c2)C(=O)N2C[C@H](OCC)C[C@H]2C(=O)NC2(CCC2)C(=O)N(C)[C@@H](C2CCCC2)C(=O)N1C [PP1666] | A (a compound having 10 or more and less than 20 is denoted as A) | A (a compound having 10 or more and less than 20 is denoted as A)
0.13 | 5.3 | CCCOC[C@H]1C(=O)N[C@@H]([C@@H](C)CC)C(=O)N(C)CC(=O)N(C)[C@H]2C/C=C\CCN(C2=O)[C@@H](Cc2ccc(C(F)(F)F)cc2)C(=O)N(C)CC(=O)N[C@@H](CCc2cc(F)c(C(F)(F)F)c(F)c2)C(=O)N2C[C@H](OCC)C[C@H]2C(=O)NC2(CCC2)C(=O)N(C)[C@@H](C2CCCC2)C(=O)N(C)[C@H](C(=O)N(C)CCC)CC(=O)N1C [PP1668] | A (a compound having 10 or more and less than 20 is denoted as A) | A (a compound having 10 or more and less than 20 is denoted as A)

Reference: US20240158446A1, “CYCLIC COMPOUND HAVING SELECTIVE INHIBITORY ACTION ON KRAS OVER HRAS AND NRAS” (CHUGAI SEIYAKU KABUSHIKI KAISHA, priority 2021, published 2024)
